Measured values reported in patent publication US20250236608A1, “EGFR INHIBITORS” (Blueprint Medicines Corporation, priority 2022, published 2025).

Legend:
EGFR L858R = EGFR L858R (Homo sapiens (Human), UniProt P00533, L858R); assay: Biochemical EGFR inhibition assay, EGFR L858R; conditions: Caliper mobility shift; 1.0 mM ATP or ATP Km; read-out: Enz EGFR_L858R IC50
EGFR (d746-750) = EGFR (d746-750) (Homo sapiens (Human), UniProt P00533, DEL746-750); assay: Biochemical EGFR inhibition assay, EGFR (d746-750); conditions: Caliper mobility shift; 1.0 mM ATP or ATP Km; read-out: Enz EGFR_Exon19-del746-750 IC50
[1] = target: pEGFR (Tyr1068) in PC-9 cells (Ex19Del) (Homo sapiens (Human), UniProt P00533, DEL746-750); assay: PC-9 pEGFR AlphaLISA assay; format: cell-based; conditions: 4 hours incubation, p-EGFR (Tyr1068) AlphaLISA, read-out: Ext pEGFR_PC-9 Ex19Del IC50
In short: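 PC-9 cells seeded overnight in phenol-free DMEM with 10% FBS, then treated 4 h at 37°C with a 10-point, 4-fold compound series. Lysates assayed for pEGFR Tyr1068 by AlphaLISA SureFire; IC50 from % inhibition vs log concentration.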

Sequence of pEGFR (Tyr1068) in PC-9 cells (Ex19Del) (P00533 other isoform, or with tags, fused parts or gaps del 746-750): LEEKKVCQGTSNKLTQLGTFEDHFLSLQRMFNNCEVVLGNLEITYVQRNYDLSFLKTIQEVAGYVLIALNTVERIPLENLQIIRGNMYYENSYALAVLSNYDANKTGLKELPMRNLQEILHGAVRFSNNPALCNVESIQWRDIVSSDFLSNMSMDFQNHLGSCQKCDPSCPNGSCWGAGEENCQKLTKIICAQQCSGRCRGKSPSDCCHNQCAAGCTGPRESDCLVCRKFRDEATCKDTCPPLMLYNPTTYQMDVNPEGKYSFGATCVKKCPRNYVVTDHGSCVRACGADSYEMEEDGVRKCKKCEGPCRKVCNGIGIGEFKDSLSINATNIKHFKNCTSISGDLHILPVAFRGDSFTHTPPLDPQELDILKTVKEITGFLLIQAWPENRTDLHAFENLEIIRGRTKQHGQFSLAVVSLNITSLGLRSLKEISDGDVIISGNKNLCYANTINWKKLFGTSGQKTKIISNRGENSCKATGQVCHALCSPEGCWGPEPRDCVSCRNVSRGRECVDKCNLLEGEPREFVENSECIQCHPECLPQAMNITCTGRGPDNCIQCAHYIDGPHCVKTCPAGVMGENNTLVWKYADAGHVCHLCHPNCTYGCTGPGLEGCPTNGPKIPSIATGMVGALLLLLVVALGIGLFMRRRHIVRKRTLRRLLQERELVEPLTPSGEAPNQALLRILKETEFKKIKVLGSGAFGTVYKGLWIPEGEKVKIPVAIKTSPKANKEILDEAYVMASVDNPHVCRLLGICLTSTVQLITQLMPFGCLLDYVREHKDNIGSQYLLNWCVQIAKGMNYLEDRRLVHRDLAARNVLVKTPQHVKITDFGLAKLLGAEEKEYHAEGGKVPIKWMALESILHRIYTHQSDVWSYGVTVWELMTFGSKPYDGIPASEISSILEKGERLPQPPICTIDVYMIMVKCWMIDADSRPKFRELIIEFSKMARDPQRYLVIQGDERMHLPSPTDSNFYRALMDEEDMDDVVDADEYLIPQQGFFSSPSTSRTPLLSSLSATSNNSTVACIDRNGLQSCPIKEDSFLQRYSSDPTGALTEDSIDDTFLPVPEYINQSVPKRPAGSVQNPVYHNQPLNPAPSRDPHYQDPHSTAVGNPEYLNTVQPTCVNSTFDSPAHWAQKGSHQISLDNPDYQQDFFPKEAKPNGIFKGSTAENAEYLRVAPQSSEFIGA
Sequence of EGFR L858R (P00533 25-1210 L858R): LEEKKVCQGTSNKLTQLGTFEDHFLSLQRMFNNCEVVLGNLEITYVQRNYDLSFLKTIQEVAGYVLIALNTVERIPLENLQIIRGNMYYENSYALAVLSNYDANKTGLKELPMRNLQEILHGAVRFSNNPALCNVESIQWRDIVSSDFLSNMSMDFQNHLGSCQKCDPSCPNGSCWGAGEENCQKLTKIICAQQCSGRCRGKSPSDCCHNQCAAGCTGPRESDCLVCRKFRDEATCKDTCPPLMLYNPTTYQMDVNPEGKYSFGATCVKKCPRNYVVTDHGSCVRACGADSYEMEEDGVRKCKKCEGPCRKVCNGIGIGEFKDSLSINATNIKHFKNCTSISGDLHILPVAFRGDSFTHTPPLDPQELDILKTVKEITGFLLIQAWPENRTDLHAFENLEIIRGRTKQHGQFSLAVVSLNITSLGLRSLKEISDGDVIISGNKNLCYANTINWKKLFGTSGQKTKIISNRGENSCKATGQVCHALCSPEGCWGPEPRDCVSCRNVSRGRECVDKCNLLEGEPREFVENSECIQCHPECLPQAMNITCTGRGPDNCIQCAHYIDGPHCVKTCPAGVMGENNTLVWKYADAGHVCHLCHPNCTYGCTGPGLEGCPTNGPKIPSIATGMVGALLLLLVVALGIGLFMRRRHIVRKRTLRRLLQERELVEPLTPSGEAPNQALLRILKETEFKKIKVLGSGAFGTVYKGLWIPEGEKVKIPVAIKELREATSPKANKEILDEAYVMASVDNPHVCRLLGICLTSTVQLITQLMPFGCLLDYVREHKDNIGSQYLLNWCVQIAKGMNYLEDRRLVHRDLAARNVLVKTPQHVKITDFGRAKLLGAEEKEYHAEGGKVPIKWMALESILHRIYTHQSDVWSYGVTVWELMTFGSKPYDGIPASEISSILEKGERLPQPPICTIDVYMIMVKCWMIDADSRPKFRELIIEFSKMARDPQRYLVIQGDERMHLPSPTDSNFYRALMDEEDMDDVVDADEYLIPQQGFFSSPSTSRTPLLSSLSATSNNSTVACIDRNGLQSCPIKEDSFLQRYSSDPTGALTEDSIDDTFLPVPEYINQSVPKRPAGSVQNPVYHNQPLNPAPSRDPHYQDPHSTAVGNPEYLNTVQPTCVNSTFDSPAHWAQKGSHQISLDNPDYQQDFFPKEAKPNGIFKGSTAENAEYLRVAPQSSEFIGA
Sequence of EGFR (d746-750) (P00533 other isoform, or with tags, fused parts or gaps del 1-694/del 746-750 limits assumed): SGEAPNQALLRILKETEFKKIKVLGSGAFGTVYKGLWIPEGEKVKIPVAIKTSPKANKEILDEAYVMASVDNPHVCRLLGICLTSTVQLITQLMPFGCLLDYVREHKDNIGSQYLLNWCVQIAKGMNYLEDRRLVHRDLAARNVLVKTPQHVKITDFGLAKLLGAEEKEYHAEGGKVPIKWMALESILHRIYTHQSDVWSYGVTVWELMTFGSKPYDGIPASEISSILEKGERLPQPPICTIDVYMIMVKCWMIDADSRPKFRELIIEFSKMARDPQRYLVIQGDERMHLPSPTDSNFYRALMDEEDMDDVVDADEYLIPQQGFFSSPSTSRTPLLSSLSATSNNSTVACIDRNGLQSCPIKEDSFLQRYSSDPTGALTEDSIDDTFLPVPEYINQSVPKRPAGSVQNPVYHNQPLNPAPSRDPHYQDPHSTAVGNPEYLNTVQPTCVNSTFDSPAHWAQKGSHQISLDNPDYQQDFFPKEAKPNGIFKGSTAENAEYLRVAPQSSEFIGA

Row | Compound | IC50 (EGFR L858R) | IC50 (EGFR (d746-750)) | IC50 [1]
1 | COc1cc2ncnc(-c3cn(C)nc3-c3ccccc3)c2cc1NC(=O)[C@H]1CCN1C (single isomer, unassigned) [Example 253, (R)—N-(7-methoxy-4-(1-methyl-3-phenyl-1H-pyrazol-4-yl)quinazolin-6-yl)-1-methylazetidine-2-carboxamide or (S)—N-(7-methoxy-4-(1-methyl-3-phenyl-1H-pyrazol-4-yl)quinazolin-6-yl)-1-methylazetidine-2-carboxamide] | 2.4 nM | 1.9 nM | 3.9 nM
2 | COc1cc2ncnc(-c3cn(C)nc3-c3ccc(F)cc3)c2cc1NC(=O)c1cn(C)nc1C [Example 305, N-(4-(3-(4-fluorophenyl)-1-methyl-1H-pyrazol-4-yl)-7-methoxyquinazolin-6-yl)-1,3-dimethyl-1H-pyrazole-4-carboxamide] | 5.1 nM | 3.3 nM | 3.5 nM
3 | CCN1CCN(C(=O)Oc2cc3c(-c4cn(C)nc4-c4ccccc4)ncnc3cc2OC)[C@@H](C)C1 [Example 75, 7-methoxy-4-(1-methyl-3-phenyl-1H-pyrazol-4-yl)quinazolin-6-yl (S)-4-ethyl-2-methylpiperazine-1-carboxylate] | 3.6 nM | 2.2 nM | 3.6 nM
4 | COc1cc2ncnc(-c3cn(C)nc3-c3ccccc3)c2nc1NC(=O)C1(C(F)(F)F)CC1 [Example 361, N-(7-methoxy-4-(1-methyl-3-phenyl-1H-pyrazol-4-yl)pyrido[3,2-d]pyrimidin-6-yl)-1-(trifluoromethyl)cyclopropane-1-carboxamide] | 1.6 nM | 0.9 nM | 1.2 nM

Other lines, results leading:

Row | IC50 (EGFR L858R) | IC50 (EGFR (d746-750)) | IC50 [1] | Compound
5 | 6.7 nM | 1 nM | 4.1 nM | COc1cc2ncnc(-c3cn(C)nc3-c3cccc(O)c3)c2nc1NC(=O)C1(C(F)(F)F)CC1 [Example 422, N-(4-(3-(3-hydroxyphenyl)-1-methyl-1H-pyrazol-4-yl)-7-methoxypyrido[3,2-d]pyrimidin-6-yl)-1-(trifluoromethyl)cyclopropane-1-carboxamide]
6 | 1.7 nM | 0.4 nM | 0.7 nM | CCOc1cc2ncnc(-c3cn(C)nc3-c3ccc(F)cc3)c2nc1NC(=O)[C@@]12COC[C@@H]1C2 (single isomer, unassigned) [Example 385, (1R,5R)—N-(7-ethoxy-4-(3-(4-fluorophenyl)-1-methyl-1H-pyrazol-4-yl)pyrido[3,2-d]pyrimidin-6-yl)-3-oxabicyclo[3.1.0]hexane-1-carboxamide or (1S,5S)—N-(7-ethoxy-4-(3-(4-fluorophenyl)-1-methyl-1H-pyrazol-4-yl)pyrido[3,2-d]pyrimidin-6-yl)-3-oxabicyclo[3.1.0]hexane-1-carboxamide]
7 | 2.4 nM | 0.6 nM | 1.6 nM | COc1cc2ncnc(-c3cn(C)nc3-c3ccc(F)cc3)c2nc1NC(=O)[C@@]12COC[C@@H]1C2 (single isomer, unassigned) [Example 382, (1R,5R)—N-(4-(3-(4-fluorophenyl)-1-methyl-1H-pyrazol-4-yl)-7-methoxypyrido[3,2-d]pyrimidin-6-yl)-3-oxabicyclo[3.1.0]hexane-1-carboxamide or (1S,5S)—N-(4-(3-(4-fluorophenyl)-1-methyl-1H-pyrazol-4-yl)-7-methoxypyrido[3,2-d]pyrimidin-6-yl)-3-oxabicyclo[3.1.0]hexane-1-carboxamide]
8 | 2.3 nM | 1.2 nM | 1.5 nM | COc1cc2ncnc(-c3cn(C)nc3-c3ccc(F)cc3F)c2nc1NC(=O)[C@]12C[C@H]1CN(C)C2 (single isomer, unassigned) [Example 424, (1R,5R)—N-(4-(3-(2,4-difluorophenyl)-1-methyl-1H-pyrazol-4-yl)-7-methoxypyrido[3,2-d]pyrimidin-6-yl)-3-methyl-3-azabicyclo[3.1.0]hexane-1-carboxamide or (1S,5S)—N-(4-(3-(2,4-difluorophenyl)-1-methyl-1H-pyrazol-4-yl)-7-methoxypyrido[3,2-d]pyrimidin-6-yl)-3-methyl-3-azabicyclo[3.1.0]hexane-1-carboxamide]
